Data reported in article PMC4412285, “Broadening the repertoire of melanoma-associated T-cell epitopes” (Cancer Immunology, Immunotherapy : CII, 2015).

Assays:
[1] = molecular target: T1, HLA-B7 (Homo sapiens, UniProt P01889); experiment: MHC ELISA after UV light-mediated peptide exchange; format: binding; set-up: key: 1 = confirm ed ligand; settings: MHC rescue after UV-induced peptide exchange, absorbance normalized to control ligand HLA-B7/CMV pp65RPH, selected if above 0.70 of control in either of two experiments, duplicates
T1 construct: made in house; host or cells: Escherichia coli

[2] = molecular target: T2, HLA-A11 (Homo sapiens, UniProt P04439, A114D/F33Y/S129P); experiment: MHC ELISA after UV light-mediated peptide exchange; format: binding; set-up: key: 1 = confirm ed ligand; settings: MHC rescue after UV-induced peptide exchange, absorbance normalized to control ligand HLA-A11/EBV EBNA4AVF, selected if above 0.90 of control in either of two experiments, duplicates
T2 construct: made in house; host or cells: Escherichia coli

Sequence | Confirmed ligand [1] | Confirmed ligand [2]
LPHSSSHWL [gp100 630-638] | 1 | 
CPIGENSPL | 1 | 
RLVKRQVPL [gp100 465-473] | 1 | 
NQMGRNSMK [TRP-2 310-318] |  | 1
GPNCTERRLL [Tyrosinase 109-118] | 1 | 
CPRLGAESA [TRP-2 41-49] | 1 | 
IPLYRNGDF [Tyrosinase 430-438] | 1 | 
AGYNCGDCK [TRP-2 102-110] |  | 1
VPFSVSVSQL [gp100 213-222] | 1 | 
VIRQNIHSL [TRP-2 125-133] | 1 | 
TPRLPSSAD [Tyrosinase 309-317] | 1 | 
QTSAGHFPR [Tyrosinase 14-22] |  | 1
RAREPVTKA [MAGE-A3 125-133] | 1 | 
FTIPYWDWR [Tyrosinase 231-239] |  | 1
YMVPFIPLYR [Tyrosinase 425-434] |  | 1
GAAMVGAVL | 1 | 
LLGDNQIMPK [MAGE-A3 189-198] |  | 1
TPAEVSIVVL [gp100 401-410] | 1 | 
RAMLGTHTM [gp100 176-184] | 1 | 
APRGPHGGA [NY-ESO-1 60-68] | 1 | 

Sequence | Confirmed ligand [1] | Confirmed ligand [2]
VPLAHSSSA [gp100 198-206] | 1 | 
TPAEVSIVV [gp100 401-409] | 1 | 
LPHSAANDPI [TRP-2 382-391] | 1 | 
GPRGAGAARA [NY-ESO-1 44-53] | 1 | 
SSLPTTMNY [MAGE-A3 69-77] |  | 1
VPLAHSSSAF [gp100 198-207] | 1 | 
MGFNCGNCK [Tyrosinase 96-104] |  | 1
SPQGASSLPT [MAGE-A3 64-73] | 1 | 
APPLPVPGVL [NY-ESO-1 113-122] | 1 | 
SPQEREQFL [TRP-2 134-142] | 1 | 
TPEATGMTPA [gp100 394-403] | 1 | 
MVPFIPLYR [Tyrosinase 426-434] |  | 1
FPRACVSSK [Tyrosinase 20-28] | 1 | 
SPLLSGQQV [gp100 653-661] | 1 | 
LPEEKQPLLM [Tyrosinase 507-516] | 1 | 
GPHISYPPL [MAGE-A3 296-304] | 1 | 
VTVYHRRGSR [gp100 186-195] |  | 1
PLMETHLSSK [TRP-2 504-513] |  | 1
RTKAWNRQLY [gp100 40-49] |  | 1
RLRKGYTPL [TRP-2 497-505] | 1 | 

Sequence | Confirmed ligand [1] | Confirmed ligand [2]
RALVETSYVK [MAGE-A3 276-285] |  | 1
AIFDEWMKR [TRP-2 401-409] |  | 1
QYFFPVIFSK [MAGE-A3 144-153] |  | 1
YPEWTEAQRL [gp100 49-58] | 1 | 
CPIGENSPLL | 1 | 
RPWSGPYIL [TRP-2 69-77] | 1 | 
APLGPQFPF [Tyrosinase 63-71] | 1 | 
CMTVDSLVNK [TRP-2 29-38] |  | 1
VSCQGGLPK [gp100 514-522] |  | 1
SVLEVFEGR [MAGE-A3 226-234] |  | 1
APRGPHGGAA [NY-ESO-1 60-69] | 1 | 
MPREDAHFI [Mart1 1-9] | 1 | 
LPSPACQLVL | 1 | 
LPEEKQPLL [Tyrosinase 507-515] | 1 | 
KISGGPHISY [MAGE-A3 292-301] |  | 1
APAFLPWHRL [Tyrosinase 204-213] | 1 | 
GTQCALTRR [Mart1 65-73] |  | 1
LPTTMNYPL [MAGE-A3 71-79] | 1 | 
